Measured values from US20210106703A1, “RADIOIMMUNOCONJUGATES IN COMBINATION WITH OTHER DRUGS AS TREATMENT AGAINST NHL” (Nordic Nanovector ASA, priority 2017, published 2021).
Read-outs that look alike come from different tables or passages of the source.

Tests used:
U2932 cells = experiment: Real Time Glo viability assay, Betalutin and cell cycle inhibitors (Example 2); format: cell-based, human; conditions: for viability at 0.1 µM / viability at 1 µM: Homo sapiens; for viability at 0.1 µM: U2932, U2932, drug 100 nM
Description: (§1) Cells were split twice a week 1:3-1:5 depending on cell density. […] Real Time Glo was purchased from Promega. 384 well plates were purchased from Greiner Bio-One.
(§2) Cells were treated for 18-20 h with Betalutin at a final concentration of 1 μg/ml and 2 μg/ml in 6-well cell culture plates with shaking. After treatment, PBS was added to the cells, and the cells pelleted. Cells were first resuspended in 1 ml PBS, then washed twice in PBS and finally diluted in growth medium at the desired concentration. All cell lines were treated at a cell concentration of 2.5*10^6 cells/ml.
(§3) Regardless of cell number the culturing volume was 25 μl. For Real Time Glo, the Cell Viability Substrate and NanoLuc® Enzyme were diluted 1:500 in growth medium, and 25 μL of diluted reagents added to each well. All reagents were equilibrated to 37° C. Cells were incubated with the reaction mix for 1 h at 37° C. before the first measurement of luminescence. Measurements were repeated as often as required within 72 h after adding the reagents. Digitonin was added to cells at 200 μg/ml to record background luminescence of dead cells. A Tecan SPARK 10M plate reader was used to measure luminescence, with an integration time set to 1 sec.
(§4) Growth inhibition was calculated by dividing the luminescence signal of the treated cells by the luminescence signal of the control cells for each day of measurement after start of treatment [Table 1].
(§5) To evaluate effects of the drugs alone [(−)Betalutin] and their combination with Betalutin [(+)Betalutin], we calculated the Z-score for each sample (ZdrugX=1-(+)BetalutindrugX/(−)BetalutindrugX), where (+)BetalutindrugX and (−) BetalutindrugX are the measured luminescence intensity values for drug X in presence and absence of Betalutin, respectively. The calculation of Z-score values separately for each plate enabled comparison of results across plates, despite variations between the plates in overall signal intensity.

RIVA cells = experiment: as above; format: cell-based, human; conditions: for viability at 0.1 µM / viability at 1 µM: Homo sapiens, read-out: Growth inhibition (signal treated/control; 1 = no change); for viability at 0.1 µM: drug 100 nM
Description: as §1, §2, §3, §4, §5

[1] = (+)Betalutin, Dy3, read-out: Growth inhibition (signal treated/control; 1 = no change)
[2] = (+)Betalutin, Dy4, read-out: Growth inhibition (signal treated/control; 1 = no change)
[3] = (+)Betalutin, Dy5, read-out: Growth inhibition (signal treated/control; 1 = no change)
[4] = (+)Betalutin, Dy6, read-out: Growth inhibition (signal treated/control; 1 = no change)
[5] = (−)Betalutin, Dy3, read-out: Growth inhibition (signal treated/control; 1 = no change)
[6] = (−)Betalutin, Dy4, read-out: Growth inhibition (signal treated/control; 1 = no change)
[7] = (−)Betalutin, Dy5, read-out: Growth inhibition (signal treated/control; 1 = no change)
[8] = (−)Betalutin, Dy6, read-out: Growth inhibition (signal treated/control; 1 = no change)
[9] = U2932, U2932, drug 1 μM, (+)Betalutin, Dy3, read-out: Growth inhibition (signal treated/control; 1 = no change)
[10] = U2932, U2932, drug 1 μM, (+)Betalutin, Dy4, read-out: Growth inhibition (signal treated/control; 1 = no change)
[11] = U2932, U2932, drug 1 μM, (+)Betalutin, Dy5, read-out: Growth inhibition (signal treated/control; 1 = no change)
[12] = U2932, U2932, drug 1 μM, (+)Betalutin, Dy6, read-out: Growth inhibition (signal treated/control; 1 = no change)
[13] = U2932, U2932, drug 1 μM, (−)Betalutin, Dy3, read-out: Growth inhibition (signal treated/control; 1 = no change)
[14] = U2932, U2932, drug 1 μM, (−)Betalutin, Dy4, read-out: Growth inhibition (signal treated/control; 1 = no change)
[15] = U2932, U2932, drug 1 μM, (−)Betalutin, Dy5, read-out: Growth inhibition (signal treated/control; 1 = no change)
[16] = U2932, U2932, drug 1 μM, (−)Betalutin, Dy6, read-out: Growth inhibition (signal treated/control; 1 = no change)
[17] = RIVA, drug 1 μM, +Betalutin, Dy3
[18] = RIVA, drug 1 μM, +Betalutin, Dy4
[19] = RIVA, drug 1 μM, +Betalutin, Dy5
[20] = RIVA, drug 1 μM, +Betalutin, Dy6
[21] = RIVA, drug 1 μM, −Betalutin, Dy3
[22] = RIVA, drug 1 μM, −Betalutin, Dy4
[23] = RIVA, drug 1 μM, −Betalutin, Dy5
[24] = RIVA, drug 1 μM, −Betalutin, Dy6

| SMILES | viability at 0.1 µM (U2932 cells; [1]) [%] | viability at 0.1 µM (U2932 cells; [2]) [%] | viability at 0.1 µM (U2932 cells; [3]) [%] | viability at 0.1 µM (U2932 cells; [4]) [%] | viability at 0.1 µM (U2932 cells; [5]) [%] | viability at 0.1 µM (U2932 cells; [6]) [%] | viability at 0.1 µM (U2932 cells; [7]) [%] | viability at 0.1 µM (U2932 cells; [8]) [%] | viability at 1 µM (U2932 cells; [9]) [%] | viability at 1 µM (U2932 cells; [10]) [%] | viability at 1 µM (U2932 cells; [11]) [%] | viability at 1 µM (U2932 cells; [12]) [%] | viability at 1 µM (U2932 cells; [13]) [%] | viability at 1 µM (U2932 cells; [14]) [%] | viability at 1 µM (U2932 cells; [15]) [%] | viability at 1 µM (U2932 cells; [16]) [%] | Synergy for the combination with Betalutin (U2932 cells; U2932, drug 100 nM) | Synergy for the combination with Betalutin (U2932 cells; U2932, drug 1 μM) | viability at 0.1 µM (RIVA cells; RIVA, +Betalutin, Dy3) [%] | viability at 0.1 µM (RIVA cells; RIVA, +Betalutin, Dy4) [%] | also measured |
| --- | --- | --- | --- | --- | --- | --- | --- | --- | --- | --- | --- | --- | --- | --- | --- | --- | --- | --- | --- | --- | --- |
| Cc1csc(-c2nnc(Nc3ccc(Oc4ncccc4-c4ccnc(N)n4)cc3)c3ccccc23)c1 [AMG 900] | 89 | 78 | 77 | 52 | 96 | 97 | 92 | 72 | 77 | 77 | 80 | 58 | 83 | 96 | 96 | 81 | Bliss + Z-score | Z-score | 22 | 16 | viability at 0.1 µM (RIVA cells; RIVA, +Betalutin, Dy5): 9%; viability at 0.1 µM (RIVA cells; RIVA, +Betalutin, Dy6): 8%; viability at 0.1 µM (RIVA cells; RIVA, −Betalutin, Dy3): 82%; viability at 0.1 µM (RIVA cells; RIVA, −Betalutin, Dy4): 85%; viability at 0.1 µM (RIVA cells; RIVA, −Betalutin, Dy5): 65%; viability at 0.1 µM (RIVA cells; RIVA, −Betalutin, Dy6): 51%; viability at 1 µM (RIVA cells; [17]): 9%; viability at 1 µM (RIVA cells; [18]): 8%; viability at 1 µM (RIVA cells; [19]): 5%; viability at 1 µM (RIVA cells; [20]): 4%; viability at 1 µM (RIVA cells; [21]): 60%; viability at 1 µM (RIVA cells; [22]): 57%; viability at 1 µM (RIVA cells; [23]): 49%; viability at 1 µM (RIVA cells; [24]): 40% |
| NC(=O)Nc1cc(-c2cccc(F)c2)sc1C(=O)N[C@H]1CCCNC1 [AZD7762] | – | – | – | – | – | – | – | – | – | – | – | – | – | – | – | – | Bliss + Z-score | – | – | – | viability at 1 µM (U2932 cells; U2932, read-out: Growth inhibition (signal treated/control; 1 = no change)): 4%; Growth inhibition (signal treated/control; 1 = no change) (U2932 cells; human): 0.03; viability at 1 µM (RIVA cells): 3%; Growth inhibition (signal treated/control; 1 = no change) (RIVA cells; human): 0.34 |
| Cc1nc(N)sc1-c1ccnc(Nc2ccc(N3CCOCC3)cc2)n1 [CYC116] | 92 | 94 | 80 | 75 | 94 | 97 | 106 | 121 | 72 | 82 | 74 | 56 | 85 | 89 | 83 | 61 | Bliss + Z-score | Z-score | 13 | 10 | viability at 0.1 µM (RIVA cells; RIVA, +Betalutin, Dy5): 6%; viability at 0.1 µM (RIVA cells; RIVA, +Betalutin, Dy6): 6%; viability at 0.1 µM (RIVA cells; RIVA, −Betalutin, Dy3): 93%; viability at 0.1 µM (RIVA cells; RIVA, −Betalutin, Dy4): 94%; viability at 0.1 µM (RIVA cells; RIVA, −Betalutin, Dy5): 114%; viability at 0.1 µM (RIVA cells; RIVA, −Betalutin, Dy6): 92%; viability at 1 µM (RIVA cells; [17]): 22%; viability at 1 µM (RIVA cells; [18]): 20%; viability at 1 µM (RIVA cells; [19]): 14%; viability at 1 µM (RIVA cells; [20]): 14%; viability at 1 µM (RIVA cells; [21]): 62%; viability at 1 µM (RIVA cells; [22]): 78%; viability at 1 µM (RIVA cells; [23]): 70%; viability at 1 µM (RIVA cells; [24]): 65% |
